# Assay results from the NIST ThermoML archive (doi:10.1021/je200279q).
# ± gives the expanded uncertainty stated by the source.
# Legend:
# [1] = 298.15 K; 101.33 kPa; Liquid; Pycnometric method
# [2] = refractive index (Na D-line) (dimensionless); conditions: 298.15 K; 101.33 kPa; Liquid; Standard Abbe refractometry
SMILES,mass density [1] [kg/m3],refractive index [2]
"CC(C)CC(C)(C)C [2,2,4-trimethylpentane]",687.5 ± 0.7,1.3892 ± 0.0008
CCCCO [butan-1-ol],805.8 ± 0.7,1.3973 ± 0.0007
CCCO [propan-1-ol],799.5 ± 0.7,1.3833 ± 0.0007
